Patent publication US11523610B2, “Regulating plant growth using a diapocarotenoid” (King Abdullah University of Science and Technology, priority 2018, dated 2022)

Experiments:
[1] = system: PIN3; assay: PIN3-GFP fluorescence in ANR primordia (pPIN3::PIN3-GFP marker line); type: in vivo, Arabidopsis; details: 20 μM anchorene
Protocol: For fluorescence intensity quantification of pDR5Rev::GFP and pPIN3::PIN3-GFP marker lines, ImageJ software (rsbweb.nih.gov/ij/) was used after taking confocal microscopy photos. All calculations are background subtracted.
To determine if the effect of anchorene on ANR development is caused by changes in auxin distribution, the activity of anchorene in the presence of NPA was evaluated. […] Vertical grown 5 DAG seedlings on half MSO with indicated treatments were analyzed. The orientation of root growth was measured and then was assigned to one of twelve 30° sectors. […] The auxin efflux carrier PIN3 plays an important role in LR initiation and emergence. Therefore, the effect of anchorene on PIN3 using the pPIN3::PIN3-GFP marker line was examined.

[2] = system: Arabidopsis seedlings (anchor roots); assay: Anchor root (ANR) emergence/formation in seedlings without RAM excision; type: in vivo; details: for seedlings forming ANRs: no RAM excision, 8 DAG
Protocol: Sterilized Col-0 and mutants seeds were kept at 4° C. in darkness for 3 days to stimulate seed germination, and then sown on half strength MSO plates (with 0.5% sucrose +1% agar, 0.5g/L MES, pH 5.7) supplemented with the indicated chemicals as described below or in the Figures. Plates were vertically grown in PERCIVAL® growth chambers under long day (16 h light/8 h dark, 22° C., 60% relative humidity, light density: 4000 LUX) LED white light [HYPERIKON® 16 W LED Light Bulb A21, 16 W (100 W Equivalent), CRI92, 1620 Lumens, 4000K (Daylight Glow)] conditions. Light fluorescence rates were measured using a digital LUX meter (PEAKTECH® 5025).
ANRs were counted in seedlings vertically grown on half strength MS (with 0.5% sucrose +1% agar, 0.5 g/L MES, pH 5.7) media 8 days post-stratification (dps) using a dissection microscope. To investigate ANR formation after root apical meristems (RAM) excision (ANR-RE), RAM of seedlings were excised using sterile scalpels at 5 dps and then grown for another 3 days prior to counting the number of emerged ANRs. RAM of seedlings were excised at 8 dps and then grown for another 3 days prior to counting the number of emerged LRs. For determining the effect of anchorene on lateral roots, the number of emerged lateral roots were counted using a dissection microscope at 8 dps. For primary root length measurements, seedlings were measured using the publicly available ImageJ software (downloaded from rsbweb.nih.gov/ij/) after taking digital photographs. For adventitious root assay, the number of emerged adventitious roots per plant were counted after 5 days of treatment on plates with or without anchorene.
Prior to the anchor root (ANR) measurements, seeds from 10 ecotypes (Po-0, Is-0, Wu-0, Col-0, Cvi-0, Hi-0, Ove-0, Sav-0, Ler and Kin-0) were harvested from plants grown in long-day photoperiod conditions (16h light/8 h darkness, 22° C., 60% humidity). Seeds of all 10 ecotypes were surfaced sterilized and incubated in sterile water at 4° C. for 8 days, for uniform germination. Natural ANR emergence and ANRC was measured as described above (Anchor root assays) for each ecotype. 20 μM anchorene was used to test the responses of the Po-0 and Is-0 ecotypes to anchorene.
Excision of the root apical meristems (RAM) triggers ANR formation (FIGS. 3C-D). […] About 9% of control Col-0 seedlings developed ANRs under normal conditions, while approximately 50% formed ANRs upon RAM excision (FIGS. 4B-C). […] Higher anchorene concentrations (10 and 20 μM) enhanced this ratio to 97% and 100%, respectively (FIGS. 4B-C). There was also an increase in the number of seedlings that developed two ANRs from 0% in the untreated control to approximately 80% upon application of 20 μM anchorene (FIGS. 4B-C). Using a wide range of concentrations, a dose-response curve was established in the presence and absence of RAM excision. […] Thus, the promotion of ANRs is not caused by inhibiting primary root growth.

In the case of `C\C(C=O)=C/C=C/C=C(\C)C=O` [anchorene, 12,12′-diapocarotene-12,12′-dial], the “PIN3 levels (PIN3-GFP fluorescent intensity in ANR primordia)” value [1] is reported as “significantly increased”, the “seedlings forming ANRs” value ([2]; 5 μM, control about 9%) is reported as 55% and the “seedlings forming ANRs” value ([2]; 10 μM) is reported as 97%. The “seedlings forming ANRs” value ([2]; 20 μM) was 100%, the “seedlings that developed two ANRs” value ([2]; 20 μM, untreated control 0%) was “approximately 80%” and the “ANR emergence in different Arabidopsis ecotypes” value ([2]; Col-0, Is-0 and Po-0, 20 μM anchorene) was “promotes ANR emergence”. For the same molecule, the ANR formation ([2]; screen at 5 or 25 μM) was “promotion of ANR formation” and the “dose-response of ANR formation” value ([2]; wide range of concentrations, in presence and absence of RAM excision (FIG. 3J)) was “dose dependent”.
